Source: patent publication US8728797B2, “Yeast membrane protein expression system and its application in drug screening” (priority 2001, dated 2014)

Columns and labels:
[1] = system: AD-CDR1 (Cdr1p); test: Disk diffusion assay, AD-CDR1; assay type: cell-based, S. cerevisiae; conditions: AD-pABC as negative control, 30° C., 48 h
Description: (§1) The cells were spread on CSM-agar plates and exposed to the drugs or chemicals applied to filter disks and incubated at 30° C. for 48 h. The amounts of individual drugs are given in the Materials and Methods section of Example 3. Rhodamine 6G and rhodamine 123 were dissolved in ethanol and the other antifungals were dissolved in DMSO.
(§2) Drug susceptibility was measured using disk assays on CSM-URA plates (containing 1.5% w/v agar). Yeast cells (200 μl ml of 5×10^6 cells/ml) were spread on the plates. 10 μl of drug solution or solvent control were spotted onto sterile Whatman paper disks on the pre-spread plates. The following amounts (nmoles) of drugs were applied to individual disks: fluconazole, 633 (Pfizer Ltd., Sandwich, Kent, United Kingdom); itraconazole, 0.23 (Janssen); miconazole, 0.42 (Janssen); cycloheximide, 0.71 (Sigma); rhodamine 6G, 100 (Sigma, Penrose, Auckland, N. Z.); rhodamine 123, 125 (Sigma); cerulenin 4.5 (Sigma); 5-flucytosine 100 (Sigma); amphotericin B, 97 (E. R. Squibb & Sons, Princeton, N.J.); nystatin 65 (Sigma). Agar plates were incubated at 30° C. for 48 h or until clear growth inhibition zones were visible.

[2] = system: AD-PDR5 (Pdr5p); test: Disk diffusion assay, AD-PDR5; assay type: cell-based, S. cerevisiae; conditions: AD-pABC as negative control, 30° C., 48 h
Description: as §1, §2

[3] = system: S. cerevisiae AD1002 (CDR1+); test: Disk drug susceptibility assay, AD1002 compared with parental strain; assay type: cell-based; conditions: drug on filter disks, 30° C., 48 h
Description: (§3) S. cerevisiae AD1-8u^− (CDR1−) or AD1002 (CDR1+) cells (5×10^5) seeded in top agar on CSM agar plates (containing uracil for AD1-8u^−) were exposed to drugs or chemicals applied to filter disks and incubated at 30° C. for 48 h. The sensitivity of AD1002 to drugs or chemicals was unaffected by supplementing the medium with uridine (0.02% w/v). Amounts of individual drugs applied to disks are given in the Materials and methods section of Example 2, below.
(§4) Drug susceptibility was measured using disk assays on CSM-URA plates (containing 1.5% w/v agar). Plates were seeded with yeast cells suspended in top agar (5 ml, 10^5 cells/ml). For the uracil-dependent parental strain, agar was supplemented with 0.02% uridine. Five microliters of drug solution or solvent control were spotted onto sterile Whatman paper disks on the top agar. The following amounts (nmoles) of drugs were applied to individual disks: fluconazole, 6.5 (Pfizer Ltd., Sandwich, Kent, United Kingdom); ketoconazole, 0.094 (Janssen Research Foundation, Beerse, Belgium); itraconazole, 0.35 (Janssen); miconazole, 0.084 (Janssen); amphotericin B, 54 (E. R. Squibb & Sons, Princeton, N.J.); rhodamine 6G, 10 (Sigma, Penrose, Auckland, N. Z.); rhodamine 123, 50 (Sigma); trifluoperazine 100 (Sigma); benomyl, 10 (Nippon Roche); cycloheximide, 5 (Sigma); carbonyl cyanide p-chlorophenylhydrazone, 490 (CCCP, Sigma); oligomycin, 10 (Sigma); nigericin, 100 (Sigma); tamoxifen, 25 (Sigma); naftifine, 50 (Novartis); quinidine, 500 (Sigma); valinomycin, 20 (Sigma); verapamil, 1000 (Sigma). Agar plates were incubated at 30° C. for 48 h or until clear growth inhibition zones were visible.

[4] = molecular target: T1, Cdr1p ATPase (Candida albicans, UniProt P43071, E1416A/I916V/K1177E/L1021S/Q214E/T842S/Y427F); test: Oligomycin sensitive ATPase/NTPase activity of AD1002 plasma membranes; assay type: biochemical, C. albicans
T1 construct: expressed in transfected cells; host or cells: S. cerevisiae AD1-8u- with pKEN1002 integrated at the PDR5 locus (strain AD1002), plasma membrane fraction
Description: Membrane fractions were isolated from S. cerevisiae AD1002 (▪) or parental AD1-8u^− cells (●). ATPase assays were carried out at 30° C. for 30 min, as described in Materials and methods for Example 2. The oligomycin-sensitive activity was determined as the difference in ATPase activity in the presence and absence of 20 μM oligomycin. […] The results are the means (+/−SD) of four determinations carried out on two membrane preparations.
(B) Inhibition profile with KN20 on the oligomycin-sensitive Cdr1p ATPase activity of plasma membranes from AD1002 minus the oligomycin-sensitive ATPase activity of plasma membranes from the isogenic AD1-8u^− strain.
Yeast were grown in YEPD, pH 5.5 at 30° C. until they reached late-exponential phase of growth (OD600 nm=7), washed twice in ice-cold distilled water, and incubated on ice for 30 min to minimize glucose-stimulated Pma1p activity. Cells were resuspended in homogenising medium (50 mM Tris pH 7.5, 2 mM EDTA and 1 mM phenylmethylsulfonyl fluoride) and disrupted using a Braun Homogeniser. Cell debris and unbroken cells were removed by centrifuging at 2,000×g at 4° C. for 10 min. A crude membrane fraction was isolated from the cell-free supernatant by centrifuging at 30,000×g at 4° C. for 45 min. Plasma membranes were prepared by centrifugation of the supernatant obtained after selective precipitation of mitochondria at pH 5.2 as described previously (Goffeau, A. and Dufour, J. P., 1988). The plasma membranes were resuspended in 10 mM Tris pH 7.0, 0.5 mM EDTA and 20% [v/v] glycerol and stored at −80° C. Protein was determined using a micro-Bradford (Bio-Rad Laboratories, Hercules, Calif. [Bradford, M. M., 1976]) assay with gamma-globulin as standard. Nucleotide triphosphatase activity was measured by incubating the plasma membrane fractions (10 μg) at 30° C. in a final volume of 120 μl containing 6 mM NTP, 7 mM MgSO4 in 59 mM MES-Tris buffer pH 6.0-8.0. To eliminate possible contributions from nonspecific phosphatases, vacuolar, or mitochondrial ATPases, 0.2 mM ammonium molybdate, 50 mM KNO3 and 10 mM NaN3, respectively, were included in assays (Monk B C, et al, 1991). Other ATPase inhibitors (20 μM oligomycin, 20 μM aurovertin B or 100 μM vanadate were added to the reaction where indicated. After 30 min the reaction was stopped by adding 130 μl of a solution containing 1% (w/v) SDS, 0.6 M H2SO4, 1.2% (w/v) ammonium molybdate and 1.6% (w/v) ascorbic acid. Inorganic phosphate released from NTPs was measured at 750 nm after 10 min incubation at room temperature.

[5] = system: S. cerevisiae AD1-8u^− (CDR1−); test: Disk drug susceptibility assay, parental strain; assay type: cell-based; conditions: at the concentrations used; 30° C., 48 h
Description: as §3, §4

[6] = system: AD-BEN^R (Ben^Rp); test: Disk diffusion assay, AD-BEN^R; assay type: cell-based, S. cerevisiae; conditions: AD-pABC as negative control, 30° C., 48 h
Description: as §1, §2

[7] = system: AD-ERG11 (Erg11p); test: Disk diffusion assay, AD-ERG11; assay type: cell-based, S. cerevisiae; conditions: AD-pABC as negative control, 30° C., 48 h
Description: as §1, §2

T1 sequence (P43071 whole entry Q214E/Y427F/T842S/I916V/L1021S/K1177E/E1416A): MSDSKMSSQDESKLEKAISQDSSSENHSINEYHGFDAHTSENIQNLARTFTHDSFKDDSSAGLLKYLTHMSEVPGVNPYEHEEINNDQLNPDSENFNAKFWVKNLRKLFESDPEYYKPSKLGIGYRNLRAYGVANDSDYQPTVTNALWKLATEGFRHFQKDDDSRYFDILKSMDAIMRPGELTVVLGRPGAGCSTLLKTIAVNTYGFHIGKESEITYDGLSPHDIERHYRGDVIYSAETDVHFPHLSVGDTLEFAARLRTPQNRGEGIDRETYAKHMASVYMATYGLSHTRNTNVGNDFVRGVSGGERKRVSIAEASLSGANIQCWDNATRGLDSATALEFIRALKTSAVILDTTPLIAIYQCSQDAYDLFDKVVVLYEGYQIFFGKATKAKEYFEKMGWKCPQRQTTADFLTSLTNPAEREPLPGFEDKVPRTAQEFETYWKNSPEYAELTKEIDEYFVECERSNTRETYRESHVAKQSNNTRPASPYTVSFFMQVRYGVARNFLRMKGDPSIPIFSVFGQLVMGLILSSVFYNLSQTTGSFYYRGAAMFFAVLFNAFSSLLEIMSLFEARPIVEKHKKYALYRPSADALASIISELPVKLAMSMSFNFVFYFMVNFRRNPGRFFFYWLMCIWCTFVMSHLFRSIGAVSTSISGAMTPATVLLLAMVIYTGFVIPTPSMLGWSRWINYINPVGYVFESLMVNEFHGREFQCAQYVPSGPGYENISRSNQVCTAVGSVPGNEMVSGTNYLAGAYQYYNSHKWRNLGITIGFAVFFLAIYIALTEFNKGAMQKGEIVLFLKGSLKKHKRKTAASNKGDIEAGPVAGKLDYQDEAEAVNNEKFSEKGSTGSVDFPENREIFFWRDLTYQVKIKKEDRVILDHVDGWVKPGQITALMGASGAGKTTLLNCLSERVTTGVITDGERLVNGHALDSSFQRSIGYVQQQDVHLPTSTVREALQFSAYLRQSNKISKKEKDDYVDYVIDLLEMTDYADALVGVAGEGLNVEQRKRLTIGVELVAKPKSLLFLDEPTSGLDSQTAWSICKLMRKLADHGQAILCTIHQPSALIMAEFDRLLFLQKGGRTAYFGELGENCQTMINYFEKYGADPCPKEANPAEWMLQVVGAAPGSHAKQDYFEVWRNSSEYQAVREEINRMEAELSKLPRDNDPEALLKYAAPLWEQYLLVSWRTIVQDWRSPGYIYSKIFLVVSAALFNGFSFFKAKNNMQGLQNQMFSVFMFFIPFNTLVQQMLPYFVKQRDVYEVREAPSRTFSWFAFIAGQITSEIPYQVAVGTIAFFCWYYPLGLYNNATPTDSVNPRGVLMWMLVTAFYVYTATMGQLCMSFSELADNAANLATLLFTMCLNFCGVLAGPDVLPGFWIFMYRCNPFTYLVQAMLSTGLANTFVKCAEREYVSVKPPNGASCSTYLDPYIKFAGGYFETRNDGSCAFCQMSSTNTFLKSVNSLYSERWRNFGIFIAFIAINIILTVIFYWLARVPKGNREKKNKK

C[C@@H]1[C@H](O)[C@@H](C)/C=C/C=C/C=C/C=C/C=C/C=C/C=C/[C@H](O[C@@H]2O[C@H](C)[C@@H](O)[C@H](N)[C@@H]2O)C[C@@H]2O[C@](O)(C[C@@H](O)C[C@@H](O)[C@H](O)CC[C@@H](O)C[C@@H](O)CC(=O)O[C@H]1C)C[C@H](O)[C@H]2C(=O)O [amphotericin B]
resistance/sensitivity in disk diffusion assay [1]: sensitivities
resistance/sensitivity in disk diffusion assay [2]: sensitivities
resistance of AD1002 relative to parental strain in disk assay ([3]; listed as Amphotericin B): toxicity in yeast was not modified

CC[C@H]1O[C@]2(C)[C@H](OC(C)=O)[C@@]1(C)O[C@@H](/C=C/C=C/C=C/c1oc(=O)cc(OC)c1C)[C@@H]2O [aurovertin B]
sensitivity of AD1002 ATPase/NTPase activity to inhibitor ([4]; aurovertin B 20 μM): insensitive

CCCCNC(=O)n1c(NC(=O)OC)nc2ccccc21 [benomyl]
sensitivity of parental strain AD1-8u^− in disk assay [5]: resistant

C/C=C/C/C=C/CCC(=O)[C@H]1O[C@H]1C(N)=O [cerulenin]
resistance/sensitivity in disk diffusion assay [6]: resistant
resistance/sensitivity in disk diffusion assay [7]: susceptible

C[C@@H]1C[C@@H]([C@H](O)CC2CC(=O)NC(=O)C2)C(=O)[C@@H](C)C1 [cycloheximide]
resistance/sensitivity in disk diffusion assay [1]: resistances
resistance/sensitivity in disk diffusion assay [2]: resistances
resistance/sensitivity in disk diffusion assay [6]: resistant
resistance/sensitivity in disk diffusion assay [7]: susceptible
resistance of AD1002 relative to parental strain in disk assay [3]: confers resistance to growth inhibition

Nc1[nH]c(=O)ncc1F [flucytosine]
resistance/sensitivity in disk diffusion assay [1]: sensitivities
resistance/sensitivity in disk diffusion assay [2]: sensitivities
resistance/sensitivity in disk diffusion assay [6]: sensitive
resistance/sensitivity in disk diffusion assay [7]: susceptible

Clc1ccc(COC(Cn2ccnc2)c2ccc(Cl)cc2Cl)c(Cl)c1 (centres unmarked) [miconazole]
resistance/sensitivity in disk diffusion assay [1]: resistances
resistance/sensitivity in disk diffusion assay [2]: resistances
resistance/sensitivity in disk diffusion assay [6]: detectable resistance
resistance/sensitivity in disk diffusion assay [7]: some resistance

CN(C/C=C/c1ccccc1)Cc1cccc2ccccc12 [naftifine]
resistance of AD1002 relative to parental strain in disk assay [3]: cross-resistance

CO[C@@H]1C[C@@H](C[C@H]2CC[C@H](C)[C@H]([C@@H](C)C(=O)O)O2)O[C@]2(O[C@](C)([C@H]3CC[C@@](C)([C@@H]4O[C@@H]([C@H]5O[C@@](O)(CO)[C@H](C)C[C@@H]5C)C[C@@H]4C)O3)C[C@H]2C)[C@@H]1C [nigericin]
resistance of AD1002 relative to parental strain in disk assay [3]: confers resistance to growth inhibition

C[C@@H]1[C@H](O)[C@@H](C)/C=C/C=C/CC/C=C/C=C/C=C/C=C/C(O[C@H]2O[C@H](C)[C@@H](O)[C@H](N)[C@@H]2O)CC2O[C@](O)(CC(O)C(O)CCC(O)CC(O)CC(O)CC(=O)O[C@H]1C)CC(O)C2C(=O)O (some centres unmarked) [nystatin]
resistance/sensitivity in disk diffusion assay [1]: sensitivities
resistance/sensitivity in disk diffusion assay [2]: sensitivities

CC[C@H]1/C=C/C=C/C[C@@H](C)[C@H](O)[C@@](C)(O)C(=O)[C@@H](C)[C@H](O)[C@@H](C)C(=O)[C@@H](C)[C@H](O)[C@@H](C)/C=C/C(=O)O[C@@H]2[C@H](C)[C@H](CC1)O[C@]1(CC[C@H](C)[C@H](C[C@@H](C)O)O1)[C@H]2C [oligomycin]
sensitivity of parental strain AD1-8u^− in disk assay [5]: resistant

C=C[C@H]1C[N@@]2CC[C@H]1C[C@@H]2[C@@H](O)c1ccnc2ccc(OC)cc12 [quinidine]
sensitivity of parental strain AD1-8u^− in disk assay [5]: resistant

CC/C(=C(\c1ccccc1)c1ccc(OCCN(C)C)cc1)c1ccccc1 [tamoxifen]
resistance of AD1002 relative to parental strain in disk assay [3]: confers resistance to growth inhibition

CN1CCN(CCCN2c3ccccc3Sc3ccc(C(F)(F)F)cc32)CC1 [trifluoperazine]
resistance of AD1002 relative to parental strain in disk assay [3]: confers resistance to growth inhibition

CC(C)[C@@H]1NC(=O)[C@H](C)OC(=O)[C@@H](C(C)C)NC(=O)[C@@H](C(C)C)OC(=O)[C@H](C(C)C)NC(=O)[C@H](C)OC(=O)[C@@H](C(C)C)NC(=O)[C@@H](C(C)C)OC(=O)[C@H](C(C)C)NC(=O)[C@H](C)OC(=O)[C@@H](C(C)C)NC(=O)[C@@H](C(C)C)OC1=O [valinomycin]
sensitivity of parental strain AD1-8u^− in disk assay [5]: resistant

[O]=[V]([O-])([O-])[O-] [vanadate]
sensitivity of AD1002 ATPase/NTPase activity to inhibitor ([4]; vanadate 100 μM): completely sensitive

COc1ccc(CCN(C)CCCC(C#N)(c2ccc(OC)c(OC)c2)C(C)C)cc1OC (centres unmarked) [verapamil]
resistance of AD1002 relative to parental strain in disk assay [3]: confers resistance to growth inhibition

rhodamine 6G
resistance/sensitivity in disk diffusion assay [1]: resistances
resistance/sensitivity in disk diffusion assay [2]: resistances
resistance/sensitivity in disk diffusion assay [6]: fully sensitive
resistance/sensitivity in disk diffusion assay [7]: susceptible
resistance of AD1002 relative to parental strain in disk assay [3]: clear resistance

rhodamine 123
resistance/sensitivity in disk diffusion assay [1]: resistances
resistance/sensitivity in disk diffusion assay [2]: resistances
resistance/sensitivity in disk diffusion assay [6]: fully sensitive
resistance/sensitivity in disk diffusion assay [7]: susceptible
resistance of AD1002 relative to parental strain in disk assay [3]: clear resistance
